# Measurements published in PubChem BioAssay (NCI).
#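 The compound was tested at five concentrations on cells cultured in 96-well plates, with a 48-hour exposure period. The concentration for 50% growth inhibition is given as GI50. TGI is the concentration that stops growth completely.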
# Legend:
# Test in all cases: growth of human tumour cells (NCI), 48 h
# 786-0 renal = test system: 786-0 renal
# A498 renal = test system: A498 renal
# A549 NSCLC = test system: A549 NSCLC
# ACHN renal = test system: ACHN renal
# BT-549 breast = test system: BT-549 breast
# CAKI-1 renal = test system: CAKI-1 renal
# CCRF-CEM leukemia = test system: CCRF-CEM leukemia
# COLO 205 colon = test system: COLO 205 colon
# DU-145 prostate = test system: DU-145 prostate
# HCC-2998 colon = test system: HCC-2998 colon
# HCT-116 colon = test system: HCT-116 colon
# HCT-15 colon = test system: HCT-15 colon
# HL-60(TB) leukemia = test system: HL-60(TB) leukemia
# HOP-62 NSCLC = test system: HOP-62 NSCLC
# HS 578T breast = test system: HS 578T breast
# HT29 colon = test system: HT29 colon
# IGROV1 ovarian = test system: IGROV1 ovarian
# K-562 leukemia = test system: K-562 leukemia
# LOX IMVI melanoma = test system: LOX IMVI melanoma
# M14 melanoma = test system: M14 melanoma
# MALME-3M melanoma = test system: MALME-3M melanoma
# MCF7 breast = test system: MCF7 breast
# MDA-MB-231 breast = test system: MDA-MB-231 breast
# MDA-MB-435 = test system: MDA-MB-435
# MOLT-4 leukemia = test system: MOLT-4 leukemia
# NCI-H226 lung = test system: NCI-H226 lung
# NCI-H23 lung = test system: NCI-H23 lung
# NCI-H460 lung = test system: NCI-H460 lung
# NCI-H522 lung = test system: NCI-H522 lung
# NCI/ADR-RES ovarian = test system: NCI/ADR-RES ovarian
# OVCAR-4 ovarian = test system: OVCAR-4 ovarian
# OVCAR-5 ovarian = test system: OVCAR-5 ovarian
# OVCAR-8 ovarian = test system: OVCAR-8 ovarian
# PC-3 prostate = test system: PC-3 prostate
# RPMI-8226 leukemia = test system: RPMI-8226 leukemia
# RXF 393 renal = test system: RXF 393 renal
# SF-268 CNS = test system: SF-268 CNS
# SF-295 CNS = test system: SF-295 CNS
# SF-539 CNS = test system: SF-539 CNS
# SK-MEL-2 melanoma = test system: SK-MEL-2 melanoma
# SK-MEL-28 melanoma = test system: SK-MEL-28 melanoma
# SK-MEL-5 melanoma = test system: SK-MEL-5 melanoma
# SK-OV-3 ovarian = test system: SK-OV-3 ovarian
# SN12C renal = test system: SN12C renal
# SNB-19 CNS = test system: SNB-19 CNS
# SNB-75 CNS = test system: SNB-75 CNS
# SR leukemia = test system: SR leukemia
# SW-620 colon = test system: SW-620 colon
# T-47D breast = test system: T-47D breast
# TK-10 renal = test system: TK-10 renal
# U251 CNS = test system: U251 CNS
# UACC-257 melanoma = test system: UACC-257 melanoma
# UACC-62 melanoma = test system: UACC-62 melanoma
# UO-31 renal = test system: UO-31 renal
smiles,measurement,setting,value
O=c1oc2cc(OS(=O)(=O)c3ccccc3)ccc2c2c1CCCCC2,GI50,786-0 renal,6.24 µM
same,TGI,786-0 renal,> 100 µM
same,GI50,A498 renal,> 100 µM
same,TGI,A498 renal,> 100 µM
same,GI50,A549 NSCLC,4.78 µM
same,TGI,A549 NSCLC,> 100 µM
same,GI50,ACHN renal,> 100 µM
same,TGI,ACHN renal,> 100 µM
same,GI50,BT-549 breast,5.44 µM
same,TGI,BT-549 breast,> 100 µM
same,GI50,CAKI-1 renal,7.38 µM
same,TGI,CAKI-1 renal,> 100 µM
same,GI50,CCRF-CEM leukemia,4.56 µM
same,TGI,CCRF-CEM leukemia,> 100 µM
same,GI50,COLO 205 colon,3.51 µM
same,TGI,COLO 205 colon,> 100 µM
same,GI50,DU-145 prostate,> 100 µM
same,TGI,DU-145 prostate,> 100 µM
same,GI50,HCC-2998 colon,32.1 µM
same,TGI,HCC-2998 colon,> 100 µM
same,GI50,HCT-116 colon,3.62 µM
same,TGI,HCT-116 colon,> 100 µM
same,GI50,HCT-15 colon,3.92 µM
same,TGI,HCT-15 colon,> 100 µM
same,GI50,HL-60(TB) leukemia,2.05 µM
same,TGI,HL-60(TB) leukemia,8.54 µM
same,GI50,HOP-62 NSCLC,> 100 µM
same,TGI,HOP-62 NSCLC,> 100 µM
same,GI50,HS 578T breast,> 100 µM
same,TGI,HS 578T breast,> 100 µM
same,GI50,HT29 colon,2.84 µM
same,TGI,HT29 colon,> 100 µM
same,GI50,IGROV1 ovarian,> 100 µM
same,TGI,IGROV1 ovarian,> 100 µM
same,GI50,K-562 leukemia,4.06 µM
same,TGI,K-562 leukemia,> 100 µM
same,GI50,LOX IMVI melanoma,8.71 µM
same,TGI,LOX IMVI melanoma,> 100 µM
same,GI50,M14 melanoma,8.8 µM
same,TGI,M14 melanoma,> 100 µM
same,GI50,MALME-3M melanoma,29.4 µM
same,TGI,MALME-3M melanoma,> 100 µM
same,GI50,MCF7 breast,5.14 µM
same,TGI,MCF7 breast,> 100 µM
same,GI50,MDA-MB-231 breast,> 100 µM
same,TGI,MDA-MB-231 breast,> 100 µM
same,GI50,MDA-MB-435,9.44 µM
same,TGI,MDA-MB-435,> 100 µM
same,GI50,MOLT-4 leukemia,4.35 µM
same,TGI,MOLT-4 leukemia,> 100 µM
same,GI50,NCI-H226 lung,> 100 µM
same,TGI,NCI-H226 lung,> 100 µM
same,GI50,NCI-H23 lung,7.27 µM
same,TGI,NCI-H23 lung,> 100 µM
same,GI50,NCI-H460 lung,4.27 µM
same,TGI,NCI-H460 lung,> 100 µM
same,GI50,NCI-H522 lung,6.44 µM
same,TGI,NCI-H522 lung,> 100 µM
same,GI50,NCI/ADR-RES ovarian,4.53 µM
same,TGI,NCI/ADR-RES ovarian,> 100 µM
same,GI50,OVCAR-4 ovarian,4.58 µM
same,TGI,OVCAR-4 ovarian,> 100 µM
same,GI50,OVCAR-5 ovarian,> 100 µM
same,TGI,OVCAR-5 ovarian,> 100 µM
same,GI50,OVCAR-8 ovarian,86.1 µM
same,TGI,OVCAR-8 ovarian,> 100 µM
same,GI50,PC-3 prostate,2.61 µM
same,TGI,PC-3 prostate,> 100 µM
same,GI50,RPMI-8226 leukemia,3.58 µM
same,TGI,RPMI-8226 leukemia,> 100 µM
same,GI50,RXF 393 renal,4.55 µM
same,TGI,RXF 393 renal,> 100 µM
same,GI50,SF-268 CNS,> 100 µM
same,TGI,SF-268 CNS,> 100 µM
same,GI50,SF-295 CNS,> 100 µM
same,TGI,SF-295 CNS,> 100 µM
same,GI50,SF-539 CNS,6.68 µM
same,TGI,SF-539 CNS,> 100 µM
same,GI50,SK-MEL-2 melanoma,> 100 µM
same,TGI,SK-MEL-2 melanoma,> 100 µM
same,GI50,SK-MEL-28 melanoma,> 100 µM
same,TGI,SK-MEL-28 melanoma,> 100 µM
same,GI50,SK-MEL-5 melanoma,2.88 µM
same,TGI,SK-MEL-5 melanoma,> 100 µM
same,GI50,SK-OV-3 ovarian,> 100 µM
same,TGI,SK-OV-3 ovarian,> 100 µM
same,GI50,SN12C renal,7.24 µM
same,TGI,SN12C renal,> 100 µM
same,GI50,SNB-19 CNS,> 100 µM
same,TGI,SNB-19 CNS,> 100 µM
same,GI50,SNB-75 CNS,16.9 µM
same,TGI,SNB-75 CNS,> 100 µM
same,GI50,SR leukemia,3.01 µM
same,TGI,SR leukemia,> 100 µM
same,GI50,SW-620 colon,4.89 µM
same,TGI,SW-620 colon,> 100 µM
same,GI50,T-47D breast,3.79 µM
same,TGI,T-47D breast,> 100 µM
same,GI50,TK-10 renal,> 100 µM
same,TGI,TK-10 renal,> 100 µM
same,GI50,U251 CNS,4.51 µM
same,TGI,U251 CNS,> 100 µM
same,GI50,UACC-257 melanoma,7.31 µM
same,TGI,UACC-257 melanoma,> 100 µM
same,GI50,UACC-62 melanoma,4.73 µM
same,TGI,UACC-62 melanoma,> 100 µM
same,GI50,UO-31 renal,8 µM
same,TGI,UO-31 renal,> 100 µM
